{
  "source": "patent US5367110A",
  "about": "“Transgenic plants overproducing threonine and lysine” (Yeda Research and Development Co. Ltd., priority 1990, dated 1994)",
  "key": {"[1]": {"tested_on": "tobacco shoots (control and transgenic plant B-7)", "assay": "Resistance of tobacco shoots to aminoethylcysteine (AEC)", "assay_type": "in vivo", "details": "0.1 and 0.15 mM AEC in MS medium; transgenic B-7 (E. coli DHPS) vs control", "experimental": "To test whether the transgenic tobacco plants expressing the E. coli DHPS gene were more resistant to the lysine analog AEC compared to control nontransformed plants, shoots from control plants (FIG. 21, left) and from transgenic tobacco plant B-7 (FIG. 21, right) were dipped in MS medium containing 2 mg/l kinetin, 0.8 mg/l IAA and either 0, 0.1, 0.15 or 0.2 mM AEC."}, "DHPS": {"biological_target": "T1, DHPS (Nicotiana tabacum, UniProt Q42948)", "T1 construct": "from tissue; host or cells: leaves of nontransformed tobacco (crude extract)", "T1 sequence (Q42948 34-359)": "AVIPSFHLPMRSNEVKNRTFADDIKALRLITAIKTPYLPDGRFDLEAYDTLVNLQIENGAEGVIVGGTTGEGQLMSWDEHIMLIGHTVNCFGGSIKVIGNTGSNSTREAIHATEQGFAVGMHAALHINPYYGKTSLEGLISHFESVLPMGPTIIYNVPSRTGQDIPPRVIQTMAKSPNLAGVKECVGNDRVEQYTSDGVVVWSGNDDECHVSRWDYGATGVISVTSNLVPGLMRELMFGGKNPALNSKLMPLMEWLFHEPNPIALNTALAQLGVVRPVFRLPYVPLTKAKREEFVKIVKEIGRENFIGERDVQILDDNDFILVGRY", "assay": "DHPS activity (O-ABA assay) with increasing lysine, leaf extracts of control nontransformed tobacco", "assay_type": "biochemical", "experimental": "(§1) Transgenic plants were screened for an elevated DHPS activity. DHPS activity was assayed in crude extracts from leaves of transgenic plants by the O-amino-benzaldehyde (O-ABA) assay of Yugari and Gilvarg (Yugari Y. and Gilvarg C., (1965) J. Biol. Chem. 240: 4710-4716) with slight modifications. Leaves from axenic tobacco plants grown in culture were homogenized with a mortar and pestle in an equal volume of cold 100 mM Tris-HCl pH 7.5 containing 1 mM phenylmethylsulfonylfluoride and 0.5 μg/ml leupeptine. Following 5 min centrifugation (16,000 xg, 4° C.) the supernatant was collected and its protein concentration was determined by the method of Bradford.\n(§2) DHPS activity was assayed as above but in the presence of increasing lysine concentrations. At each lysine concentration, DHPS activity is presented as a percentage of the activity in extracts with no lysine added (average of two plants for each transformation). (Control)--nontransformed plants; (Cytoplasm)--average DHPS activity of plants A-11 and A-22 containing the cytoplasmic-type E. coli DHPS; (Chloroplast)--average DHPS activity of plants B-7 and B-15 containing the chloroplastic-type E. coli DHPS. The elevated levels of DHPS activity in the transgenic plants clearly resulted from the expression of the E. coli enzyme in them. […] In contrast, the I50 for DHPS inhibition by lysine in the control nontransformed plants was 27 μM."}, "[2]": {"biological_target": "T2, E. coli mutated, desensitized AK (Escherichia coli, UniProt P08660)", "T2 construct": "transgenic tobacco plant E-6, crude leaf extract", "T2 sequence (P08660 2-449, change not shown)": "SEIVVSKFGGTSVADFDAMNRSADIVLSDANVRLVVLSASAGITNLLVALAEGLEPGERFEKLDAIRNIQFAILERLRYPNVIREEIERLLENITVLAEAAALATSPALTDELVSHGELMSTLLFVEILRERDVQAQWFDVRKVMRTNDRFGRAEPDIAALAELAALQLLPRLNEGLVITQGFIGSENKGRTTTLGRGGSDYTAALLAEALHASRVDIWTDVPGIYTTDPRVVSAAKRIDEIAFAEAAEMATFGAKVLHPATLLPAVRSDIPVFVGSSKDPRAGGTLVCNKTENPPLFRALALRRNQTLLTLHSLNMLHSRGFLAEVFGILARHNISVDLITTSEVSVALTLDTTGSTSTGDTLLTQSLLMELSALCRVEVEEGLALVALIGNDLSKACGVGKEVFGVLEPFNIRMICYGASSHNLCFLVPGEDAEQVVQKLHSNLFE", "assay": "AK activity with lysine and/or threonine, leaf extracts of transgenic plant E-6", "assay_type": "biochemical", "details": "10 mM lysine, threonine or both; transgenic plant E-6 (mutant bacterial enzyme)", "experimental": "(§3) Transgenic plants were screened for an elevated AK activity. AK activity was assayed in crude extracts from leaves of transgenic plants by the method of Black and Wright (Black, S., et al. (1955) J. Biol. Chem. 213: 27-38). Leaves from axenic tobacco plants grown on Nitsch minimal medium (Nitsch, J. P. (1969) Phytomorphology 19: 389-404) in Magenta boxes for about one month were homogenized with a mortar and pestle in an equal volume of cold 20 mM potassium phosphate buffer pH 7.0 containing 30 mM β-mercaptoethanol, 0.1 mM L-lysine, 0.1 mM L-threonine, 1 mM phenylmethylsulfonilfluoride and 0.5 mM leupeptin. Following 5 min centrifugation (16,000 .g, 4° C.) the supernatant was collected and its protein concentration was determined by the method of Bradford (Bradford, M. M. (1976) Anal. Biochem. 72: 248-254). Equal amounts of protein were then tested for AK activity. […] The reaction mixture was stopped by addition of 0.25 ml of a 1:1:1 mixture of 10% FeCl3 in 0.1M HCl, 3M HCl and 12% TCA, centrifuged and the optical absorbance of the supernatant at 490 nm was measured.\n(§4) AK activity was measured in crude extracts prepared from tobacco leaves as above except that 10 mM lysine, threonine or both amino acids were present in the reaction mixture as indicated on the right. […]"}, "E. coli DHPS [3]": {"tested_on": "E. coli DHPS", "assay": "DHPS activity (O-ABA assay) with increasing lysine, leaf extracts of transgenic tobacco expressing E. coli DHPS", "assay_type": "biochemical", "details": "transgenic vs wild type/control plants", "experimental": "as §1, §2"}, "E. coli DHPS [4]": {"biological_target": "T3, E. coli DHPS (Escherichia coli, UniProt P0A6L2)", "T3 sequence (P0A6L2 whole entry)": "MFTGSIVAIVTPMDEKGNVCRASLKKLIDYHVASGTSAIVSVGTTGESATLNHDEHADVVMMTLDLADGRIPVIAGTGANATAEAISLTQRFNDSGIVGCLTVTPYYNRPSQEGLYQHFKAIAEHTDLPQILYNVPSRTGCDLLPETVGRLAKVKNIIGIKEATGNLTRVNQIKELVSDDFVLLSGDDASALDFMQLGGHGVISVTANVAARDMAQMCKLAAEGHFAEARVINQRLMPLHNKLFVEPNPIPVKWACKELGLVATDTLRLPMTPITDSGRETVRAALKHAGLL", "assay": "DHPS activity (O-ABA assay) with increasing lysine, leaf extracts of transgenic tobacco expressing E. coli DHPS", "assay_type": "biochemical", "set-up": "pea rbcS-3A chloroplast transit peptide (chloroplastic type only; absent in the cytoplasmic type) (N); expressed in transfected cells; host or cells: transgenic tobacco plants (crude leaf extract; A-11 and A-22 cytoplasmic type, B-7 and B-15 chloroplastic type)", "experimental": "as §1, §2"}, "E. coli DHPS [5]": {"biological_target": "T3, E. coli DHPS", "details": "cited from earlier work"}, "plant DHPSs": {"tested_on": "plant DHPSs", "details": "plant DHPS; read-out: I50 of plant DHPSs, lysine; cited from earlier work"}, "[6]": {"tested_on": "nontransformed tobacco leaf AK", "assay": "AK activity with lysine and/or threonine, leaf extracts of nontransformed tobacco", "assay_type": "biochemical", "details": "10 mM lysine, threonine or both; nontransformed (wild type) tobacco leaf extract", "experimental": "as §3, §4"}},
  "note": "“Also recorded” adds a separate entry of the source. Like-named read-outs stand apart in the source and are kept apart here.",
  "data": [
    {"smiles": "NCCSC[C@H](N)C(=O)O", "note": "[AEC, S-(2-aminoethyl)-L-cysteine]", "values": [
      {"measurement": "growth of transgenic shoots compared with control in AEC medium", "setting": "[1]", "value": "the transgenic plant clearly grows better than the control; also recorded: much less sensitive"}
    ]},
    {"smiles": "NCCCC[C@H](N)C(=O)O", "note": "[lysine]", "values": [
      {"measurement": "IC50", "setting": "DHPS", "value": 27, "unit": "µM"},
      {"measurement": "inhibition of AK activity", "setting": "[2]", "value": "completely resistant; also recorded: completely unaffected"},
      {"measurement": "sensitivity of DHPS activity in transgenic plants to lysine inhibition compared with control plants", "setting": "E. coli DHPS [3]", "value": "less sensitive to lysine inhibition; also recorded: much more resistant to feedback inhibition"},
      {"measurement": "inhibition at 1000 µM", "setting": "E. coli DHPS [4]; 1 mM lysine, read-out: inhibition of bacterial DHPS", "value": "~50", "unit": "%"},
      {"measurement": "IC50", "setting": "E. coli DHPS [4]; transgenic tobacco plants, crude leaf extract, read-out: I50 for DHPS inhibition by lysine", "value": 1600, "unit": "µM"},
      {"measurement": "IC50", "setting": "E. coli DHPS [5]; read-out: I50 of E. coli DHPS, lysine, E. coli DHPS", "value": "~1000", "unit": "µM"},
      {"measurement": "IC50", "setting": "E. coli DHPS [5]; read-out: of E. coli DHPS, lysine inhibition, E. coli DHPS (dapA)", "value": 1000, "unit": "µM"},
      {"measurement": "IC50", "setting": "plant DHPSs", "value": "10 to 50", "unit": "µM"}
    ]},
    {"smiles": "C[C@@H](O)[C@H](N)C(=O)O", "note": "[threonine]", "values": [
      {"measurement": "inhibition of AK activity", "setting": "[2]", "value": "completely resistant; also recorded: completely unaffected"},
      {"measurement": "inhibition of AK activity", "setting": "[6]", "value": 70, "unit": "%"}
    ]}
  ]
}
